Source: patent US11052118B2, “Enhanced stem cell composition” (Fate Therapeutics, Inc., priority 2011, dated 2021)

Key:
[1] = system: CXCR4 mRNA in mobilized peripheral blood CD34+ cells; experiment: CXCR4 qPCR using the Applied Biosystems StepOnePlus, mobilized peripheral blood CD34+ cells; type: cell-based, human
Experimental: (§1) Real-time PCR transcript quantitation from ex vivo treated cord CD34^+ cells (Stem Cell Technologies, Vancouver, BC, Canada) and mobilized peripheral blood CD34^+ cells (All Cells, LLC, Emoryville, Calif., USA) was performed using the Applied Biosystems StepOne Plus system (Life Technologies Corporation, Carlsbad, Calif., USA) (see FIG. 3). […] After treatment, cells were washed with SFEM and centrifuged at 300 g for 10 minutes.
(§2) Total RNA was then isolated from treated cells using Pico Pure RNA Isolation Kit (Molecular Devices, Sunnyvale, Calif., USA). Complimentary DNA (cDNA) was reverse transcribed from 50 ng of isolated total RNA using the High-Capacity cDNA Reverse Transcription Kit (Life Technologies).
(§3) Real-Time PCR analysis was run on the cDNA samples in duplicate. The reaction mix contained 1 μL Gene Specific Taqman Assay (20λ) and 10 μL Gene Expression Master Mix (Life Technologies) with the remaining volume of 9 μL contained 10 ng cDNA and sterile diH2O.
(§4) CXCR4 results (assay from Table 1) were analyzed using Applied Biosystems StepOne Software v2.1 Analysis software. Average Cts were calculated from the sample replicates and delta-delta Cts (ΔΔCt) were calculated using GAPDH results (assay from Table 1) as a reference gene against a vehicle only sample. […] Error bars depict +/− the Standard Deviation (SD) of the replicate measurements (See FIGS. 1-3, 5, and 6).

[2] = system: CXCR4 mRNA in human umbilical cord blood derived CD34+ cells; experiment: CXCR4 qPCR using the Fluidigm platform; type: cell-based; details: 10 μM single agent in SFEM, 4 h, 37° C., compared to DMSO treated cells
Experimental: Real-time PCR transcript quantitation of gene expression from ex vivo treated human umbilical cord blood derived CD34^+ cells (Stem Cell Technologies, Vancouver, BC, Canada) was performed using the BioMark Dynamic Array microfluidics system (Fluidigm Corporation, South San Francisco, Calif., USA).
CD34^+ cells derived from cord blood or mobilized peripheral blood were treated in Serum-Free Expansion Medium (SFEM; e.g., StemSpan® from StemCell Technologies, Inc.) for four hours at 37° C., 5% CO2 with 10 uM prostaglandin pathway agonist alone or in combination with 10 uM of a glucocorticoid. Prostaglandin pathway agonists included 16,16-dimethyl PGE2 (dmPGE2), 20-ethyl PGE2 (ePGE2), 15(S)-15-methyl PGE2 (mPGE2), and PGE2. Glucocorticoids included hydrocortisone, dexamethasone, medrysone, alclometasone, or triamcinalone. After treatment, cells were washed with SFEM and centrifuged at 300 g for 10 minutes.
Total RNA was isolated then isolated from treated cells using Pico Pure RNA Isolation Kit (Molecular Devices, Sunnyvale, Calif., USA). […]
Results were analyzed using BioMark Real-Time PCR Analysis software. Average Cts were calculated from the sample replicates and delta-delta Cts (ΔΔCt) were calculated using the mean of 3 reference genes (GAPDH, HPRT1, QARS) against a vehicle only sample. […]

[3] = system: CXCR4 surface protein on CD34+ cells from human bone marrow; experiment: CXCR4 surface protein expression by flow cytometry, bone marrow CD34+ cells; type: cell-based; details: BM CD34+ cells, 10 μM each agent, 4 hours at 37° C. in SFEM, then 2 hours in SFEM
[4] = system: CXCR4 mRNA in cord blood derived CD34+ cells; experiment: CXCR4 qPCR using the Applied Biosystems StepOnePlus, cord blood CD34+ cells; type: cell-based, human
Experimental: as §1, §2, §3, §4

[5] = system: CD34+ cells migrating towards SDF1; experiment: SDF-1 transwell migration assay; type: cell-based, human; details: cells treated 4 hours at 37° C. with 10 μM, 50 ng/mL SDF1 in lower chamber, 2.5 hours; listed as dmPGE2
Experimental: Transwell migration assays were performed using 96-well chemotaxis chambers, […] pore size polycarbonate membrane (Corning Inc., Corning, N.Y.) in accordance with manufacturer's instructions. Briefly, CD34^+ cells were then treated for 4 hours at 37° C. with 16,16-dimethyl PGE2 (dmPGE2), dmPGE2 and glucocorticoid, or DMSO control at a concentration of 10 μM in StemSpan® media (Stem Cell Technology, Vancouver, Canada). The cells were then washed by centrifugation (300×g for 10 minutes) and resuspended in transwell assay buffer (Phenol Red Free RPMI media (Mediatech), 0.5% lipid free BSA (Sigma-Aldrich) at a concentration of 40,000-60,000 cells/75 μl.
To test the duration of the treatment effects, one portion of treated cells was washed by centrifugation (300×g for 10 minutes) and resuspended in StemSpan® media for 4 hours at 37° C. without dmPGE2, glucocorticoids, or DMSO and then washed again by centrifugation (300×g for 10 minutes) and resuspended in transwell assay buffer (Phenol Red Free RPMI media (Mediatech), 0.5% lipid free BSA (Sigma-Aldrich) at a concentration of 40,000-60,000 cells/75 μl.
Seventy-five μl of cell suspension was added to the upper chamber of the plate, while 235 μl of transwell assay media containing 0 or 50 ng/ml SDF1α (R&D system, Minneapolis, Minn.) was added to the bottom well. […]

CCCCC(C)(C)[C@H](O)/C=C/[C@H]1[C@H](O)CC(=O)[C@@H]1C/C=C\CCCC(=O)O [16,16-dimethyl PGE2]
increase in CXCR4 mRNA expression ([1]; CD34+ cells from mobilized peripheral blood, 4 hour treatment in SFEM, 10 μM each agent, against vehicle only sample): 27 fold
CXCR4 RNA expression ([1]; mPB CD34+ cells, 10 μM, 2 and 4 hours at 37° C. in SFEM, compared to DMSO treated cells): increase
increase in CXCR4 mRNA expression [2]: 22 fold
increase in the level of CXCR4 protein expression [3]: 12 fold
CXCR4 RNA expression ([4]; cord blood CD34+ cells, 10 μM, 2 and 4 hours at 37° C. in SFEM, compared to DMSO treated cells): increase
increase in CXCR4 mRNA expression ([4]; cord blood derived CD34+ cells, 4 hour treatment in SFEM, 10 μM each agent, against vehicle only sample): 22 fold
SDF1-driven cell migration (% of cells added), words [5]: increased SDF1-driven cell migration compared to the DMSO control
